Data taken from the supplement of paper PMC10307832.

How the values were obtained:
Experiment in all cases: relative viability (nuclei count vs DMSO), 5 days (fraction); higher = more cells survive
[1] = compound: O=C(CCCCCCC(=O)Nc1ccccc1)NO [Vorinostat] + N=C(N)NC(=N)NCCc1ccccc1 [Phenformin] (partner 250 µM)
Method in brief: (§1)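 Five library-drug doses in √10 steps were combined with a fixed anchor-drug dose, or a single drug was given alone, by pin tool to lung cancer cell lines in 1536-well plates the day after seeding. Nuclei were stained and counted after 5 days. Relative viability is the nuclei count in treated wells over that in vehicle wells, taken as the median of duplicate plates.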

[2] = compound: O=C(CCCCCCC(=O)Nc1ccccc1)NO [Vorinostat] + CC(C)C[C@H](NC(=O)[C@H](Cc1ccccc1)NC(=O)c1cnccn1)B(O)O [Bortezomib] (partner 0.002 µM)
Method in brief: as §1

[3] = compound: O=C(CCCCCCC(=O)Nc1ccccc1)NO [Vorinostat] + CC(=O)c1c(C)c2cnc(Nc3ccc(N4CCNCC4)cn3)nc2n(C2CCCC2)c1=O [Palbociclib] (partner 0.5 µM)
Method in brief: as §1

[4] = compound: O=C(CCCCCCC(=O)Nc1ccccc1)NO [Vorinostat] + NC(=O)Nc1cc(-c2cccc(F)c2)sc1C(=O)N[C@H]1CCCNC1 [AZD7762] (partner 0.2 µM)
Method in brief: as §1

[5] = compound: O=C(CCCCCCC(=O)Nc1ccccc1)NO [Vorinostat] + Nc1nc2[nH]cc(CCc3ccc(C(=O)N[C@@H](CCC(=O)O)C(=O)O)cc3)c2c(=O)[nH]1 [Pemetrexed] (partner 0.2 µM)
Method in brief: as §1

Cell Line	relative viability ([1]; first compound 0.253 µM)	relative viability ([1]; first compound 0.8 µM)	relative viability ([1]; first compound 2.53 µM)	relative viability ([1]; first compound 8 µM)	relative viability ([2]; first compound 0.253 µM)	relative viability ([2]; first compound 0.8 µM)	relative viability ([2]; first compound 2.53 µM)	relative viability ([2]; first compound 8 µM)	relative viability ([3]; first compound 0.253 µM)	relative viability ([3]; first compound 0.8 µM)	relative viability ([3]; first compound 2.53 µM)	relative viability ([3]; first compound 8 µM)	relative viability ([4]; first compound 0.253 µM)	relative viability ([4]; first compound 0.8 µM)	relative viability ([4]; first compound 2.53 µM)	relative viability ([4]; first compound 8 µM)	relative viability ([5]; first compound 0.253 µM)	relative viability ([5]; first compound 0.8 µM)	relative viability ([5]; first compound 2.53 µM)	relative viability ([5]; first compound 8 µM)
HCC-366	0.689	0.605	0.338	0.0385	1.09	0.872	0.0664	0.0198	0.345	0.182	0.0412	0.0283	0.459	0.195	0.0622	0.0231	0.169	0.174	0.0867	0.0396
HCC-827	0.455	0.521	0.453	0.239	1.03	1.11	0.913	0.451	0.576	0.506	0.333	0.135	0.181	0.321	0.215	0.178	0.269	0.278	0.212	0.153
HOP-62	0.815	0.592	0.319	0.114	1.25	0.434	0.328	0.0711	0.492	0.409	0.177	0.0765	0.258	0.518	0.145	0.0514	0.393	0.28	0.212	0.0997
LC-2-ad	0.568	0.461	0.221	0.133	1.01	0.579	0.146	0.0588	0.566	0.455	0.331	0.186	0.867	0.632	0.226	0.159	0.273	0.268	0.263	0.19
LCLC-97TM1	0.489	0.421	0.253	0.144	0.724	0.413	0.121	0.0563	0.256	0.201	0.109	0.0671	0.129	0.256	0.205	0.0628	0.155	0.149	0.146	0.0924
LCLC-103H	0.322	0.332	0.267	0.151	1.16	0.893	0.391	0.238	0.494	0.424	0.368	0.302	0.696	0.672	0.45	0.238	0.471	0.425	0.452	0.32
LOU-NH91	0.774	0.663	0.628	0.348	0.514	0.475	0.438	0.354	0.533	0.515	0.512	0.384	0.757	0.739	0.548	0.414	0.362	0.324	0.387	0.351
LU99A	0.952	0.609	0.447	0.185	1.09	0.863	0.298	0.158	0.389	0.375	0.272	0.104	0.279	0.198	0.15	0.0946	0.14	0.182	0.162	0.112
LXF-289	0.595	0.558	0.306	0.0606	1.08	0.923	0.348	0.057	0.65	0.599	0.476	0.0862	1.14	1.09	0.344	0.0727	0.905	0.794	0.554	0.0613
NCI-H23	0.844	0.881	0.674	0.101	1.19	1.07	0.251	0.128	0.696	0.622	0.154	0.137	0.174	0.13	0.0979	0.0915	0.842	0.713	0.32	0.181
NCI-H322M	0.94	0.761	0.452	0.284	1.4	1.25	0.715	0.392	0.487	0.445	0.418	0.356	0.56	0.565	0.408	0.304	0.764	0.603	0.569	0.355
NCI-H441	1.1	0.863	0.317	0.169	0.299	0.26	0.165	0.106	0.241	0.249	0.157	0.101	1.21	0.903	0.238	0.122	0.252	0.232	0.253	0.143
NCI-H460	0.611	0.4	0.0276	0.016	1.12	0.783	0.0198	0.0125	0.146	0.0944	0.0356	0.011	0.348	0.446	0.0499	0.0349	0.0729	0.064	0.0548	0.0231
NCI-H647	0.594	0.208	0.0803	0.0343	1.18	0.609	0.0719	0.0336	0.453	0.158	0.0854	0.0249	0.406	0.333	0.0641	0.0356	0.226	0.138	0.0722	0.0562
NCI-H650	0.483	0.375	0.256	0.14	0.523	0.42	0.19	0.144	0.338	0.319	0.159	0.118	0.606	0.737	0.235	0.165	0.953	0.918	0.287	0.11
NCI-H838	0.95	0.562	0.317	0.139	1.22	0.864	0.275	0.134	0.262	0.218	0.183	0.116	0.998	1	0.628	0.609	0.258	0.269	0.19	0.167
NCI-H1355	0.471	0.411	0.333	0.179	1.3	0.978	0.863	0.131	0.411	0.356	0.214	0.138	0.892	0.595	0.394	0.15	1.09	1.01	0.536	0.246
NCI-H1437	0.302	0.246	0.168	0.178	0.578	0.417	0.117	0.0915	0.303	0.265	0.172	0.124	1.23	0.9	0.426	0.197	0.308	0.3	0.187	0.151
NCI-H1651	0.408	0.326	0.0932	0.0635	0.934	0.992	0.807	0.1	0.545	0.494	0.154	0.0594	0.308	0.45	0.22	0.0691	0.614	0.577	0.377	0.0787
NCI-H1666	0.591	0.474	0.398	0.306	0.798	0.461	0.251	0.189	0.634	0.576	0.523	0.511	0.778	0.826	0.461	0.322	0.849	0.887	0.651	0.434
NCI-H1734	0.501	0.388	0.297	0.0963	1.14	0.96	0.417	0.109	0.402	0.34	0.253	0.133	0.306	0.292	0.162	0.0959	0.44	0.413	0.408	0.131
NCI-H1755	0.646	0.579	0.413	0.204	0.95	0.934	0.2	0.174	0.431	0.463	0.3	0.209	0.478	0.402	0.276	0.163	0.458	0.382	0.285	0.177
NCI-H1792	0.269	0.228	0.0757	0.0593	1.01	0.902	0.637	0.0799	0.725	0.57	0.485	0.175	0.568	0.29	0.0683	0.0252	0.795	0.524	0.163	0.0208
NCI-H1915	0.38	0.341	0.181	0.0949	1.01	0.951	0.54	0.112	0.563	0.436	0.167	0.0832	0.692	0.673	0.377	0.102	0.531	0.494	0.371	0.102
NCI-H1975	0.431	0.381	0.197	0.127	0.438	0.198	0.0889	0.081	0.569	0.461	0.164	0.104	0.791	0.641	0.272	0.197	0.323	0.243	0.183	0.133
NCI-H1993	0.436	0.491	0.588	0.464	1.17	1.13	0.461	0.411	0.715	0.775	0.499	0.362	0.817	0.672	0.384	0.312	0.594	0.492	0.503	0.344
